{"source": "patent US20060127505A1", "about": "“Anti-inflammatory formulations” (priority 2002, published 2006)", "key": {"[1]": {"tested_on": "CD3+CD25+ lymphocytes in human PBMC", "assay": "PHA-mediated induction of CD3+CD25+ lymphocytes in human PBMC (Example 8)", "assay_type": "cell-based", "conditions": "PHA 50 μg/ml, 24 hours", "experimental": "Cells from 3-12 asthma patients were cultured 24 hours with 50 μg/ml PHA. PBMC evaluated by 2-color flow cytometry were gated for CD3+ and analyzed for CD3+CD25+ or CD3+HLA-DR+ as a percentage of the CD3+ population. Results are reported as stimulation indices (SI) calculated as the ratio of % CD3+CD25+ cells or % CD3+HLA-DR+ cells in fully-stimulated cultures to % CD3+CD25+ or % CD3+HLA-DR+ respectively in cells treated with PHA plus ASX, GB, or combinations thereof."}, "[2]": {"assay": "Allergy symptoms in an allergy patient", "assay_type": "in vivo, human", "experimental": "Astaxanthin or astaxanthin plus a cetirizine together was administered to an allergy patient."}, "PMA/I-treated human PBMC": {"tested_on": "PMA/I-treated human PBMC", "assay": "Inflammation-associated T cell surface antigens (CD25, CD54) in PMA/I-treated human PBMC, two-color flow cytometry", "assay_type": "cell-based", "experimental": "In vitro studies indicate that astaxanthin suppresses expression of inflammation-associated T cell surface antigens in PMA/I-treated human PBMC. […]\nAnalysis of blood for representation by selected lymphocyte subpopulations was conducted by two-color flow cytometry."}, "[3]": {"tested_on": "cAMP and cGMP concentrations in the lung tissue", "assay": "Ovalbumin-induced asthma in guinea pigs: cAMP and cGMP in lung tissue (radioimmunoassay)", "assay_type": "in vivo, guinea pig", "conditions": "lung tissue 24 hours after OV challenge", "experimental": "The effect combinations of vitamin C, astaxanthin, and ginkolide on asthma-associated disease parameters ovalbumin(OA)-induced asthma in guinea pigs was evaluated. Twenty-four hours following OA challenge, animals are sacrificed and numbers of inflammatory cells (eosinophils, neutrophils, macrophages) are measured in bronchoalveolar lavage (BAL) fluid; and cAMP and cGMP concentrations in the lung tissue. The experiments were carried out as follows. Male Hartley guinea pigs (250-350 g) were sensitized by intramuscular injections of 0.35 ml of a 5% (W/V) ovalbumin (OA)/saline solution into each thigh on days 1 and 4. Guinea pigs were ready for asthmatic challenge after 25 days of ovalbumin injection. Asthmatic challenge was carried out with ovalbumin aerosol, and bronchoalveolar lavage (BAL) was done 24 hours later. The numbers of eosinophils, neutrophils, and macrophages in the BAL fluid were counted. Biopsies from lung tissues, cAMP and cGMP were measured using commercially available radioimmunoassay kits (Amersham). Immediately after sampling, lung biopsies were frozen by means of a Wollenberger clamp prechilled in liquid nitrogen. Samples were powdered with a pestle and mortar in liquid nitrogen and trichloro acetic acid (TCA) was added to the powdered frozen samples ([…] of tissue). Samples were further homogenized in the frozen TCA in the braying mortar and then centrifuged at 14,000×g for 10 min at 4° C. The supernatants were extracted 6 times in water-saturated diethylether, evaporated and assayed for cGMP by radioimmunoassay using liquid scintillation counter (Packard, Tri-Carb 2100TR). The dose-responsive effect of AX, EGb761, and vitamin C administered independently for suppression of asthma-associated parameters in allergen-induced, asthmatic guinea pigs was determined. Ibuprophen (IB) was used as the positive control. Concentration of inflammatory cells in bronchoalveolar lavage (BAL) fluid and levels of cAMP and cGMP in lung tissue were measured in guinea pigs 24 hours following challenge with OV. […] The dose-responsive effect of AX, EGb761, and vitamin C administered in combination for suppression of asthma-associated parameters in allergen-induced, asthmatic guinea pigs was determined. The combination of these three components was given each day for each guinea pig as a “cocktail”. Concentration of inflammatory cells in bronchoalveolar lavage (BAL) fluid and levels of cAMP and cGMP in lung tissue were measured in guinea pigs 24 hours following challenge with OV."}}}
{"smiles": "CC1=C(/C=C/C(C)=C/C=C/C(C)=C/C=C/C=C(C)/C=C/C=C(C)/C=C/C2=C(C)C(=O)[C@@H](O)CC2(C)C)C(C)(C)C[C@H](O)C1=O", "note": "[astaxanthin, 3,3′-dihydroxy-4,4′-diketo-B-carotene]", "values": [{"measurement": "CD3+CD25+ Stimulation Index", "setting": "[1]; 10^−4 M", "result": "0.49 ± 0.09"}, {"measurement": "CD3+CD25+ Stimulation Index", "setting": "[1]; 10^−5 M", "result": "0.95 ± 0.06"}, {"measurement": "CD3+CD25+ Stimulation Index", "setting": "[1]; 10^−6 M", "result": "0.96 ± 0.10"}, {"measurement": "CD3+CD25+ Stimulation Index", "setting": "[1]; 10^−7 M", "result": "0.90 ± 0.05"}, {"measurement": "CD3+CD25+ Stimulation Index", "setting": "[1]; 10^−8 M", "result": "0.95 ± 0.05"}, {"measurement": "alleviation of allergy symptoms such as itching", "setting": "[2]", "result": "did not result in alleviation of allergy symptoms"}, {"measurement": "% CD3+CD54+ cells", "setting": "PMA/I-treated human PBMC; Subject A, first column, 10^-6 M", "result": 4.2, "unit": "%"}, {"measurement": "% CD3+CD54+ cells", "setting": "PMA/I-treated human PBMC; Subject A, first column, 10^-7 M", "result": 8.4, "unit": "%"}, {"measurement": "% CD3+CD54+ cells", "setting": "PMA/I-treated human PBMC; Subject A, second column, 10^-6 M", "result": 3.3, "unit": "%"}, {"measurement": "% CD3+CD54+ cells", "setting": "PMA/I-treated human PBMC; Subject A, second column, 10^-7 M", "result": 10.6, "unit": "%"}, {"measurement": "% CD3+CD54+ cells", "setting": "PMA/I-treated human PBMC; Subject B, first column, 10^-6 M", "result": 6.3, "unit": "%"}, {"measurement": "% CD3+CD54+ cells", "setting": "PMA/I-treated human PBMC; Subject B, first column, 10^-7 M", "result": 16.2, "unit": "%"}, {"measurement": "% CD3+CD54+ cells", "setting": "PMA/I-treated human PBMC; Subject B, second column, 10^-6 M", "result": 10.3, "unit": "%"}, {"measurement": "% CD3+CD54+ cells", "setting": "PMA/I-treated human PBMC; Subject B, second column, 10^-7 M", "result": 21.9, "unit": "%"}, {"measurement": "cAMP", "setting": "[3]; 5 mg/kg", "result": "6.9 ± 0.5 pmol (mg protein)^−1"}, {"measurement": "cGMP", "setting": "[3]; 5 mg/kg", "result": "1.2 ± 0.1 pmol (mg protein)^−1"}, {"measurement": "cAMP", "setting": "[3]; 10 mg/kg", "result": "8.1 ± 0.8 pmol (mg protein)^−1"}, {"measurement": "cGMP", "setting": "[3]; 10 mg/kg", "result": "1.4 ± 0.1 pmol (mg protein)^−1"}, {"measurement": "cAMP", "setting": "[3]; 30 mg/kg", "result": "9.6 ± 0.8 pmol (mg protein)^−1"}, {"measurement": "cGMP", "setting": "[3]; 30 mg/kg", "result": "1.8 ± 0.3 pmol (mg protein)^−1"}, {"measurement": "cAMP", "setting": "[3]; 100 mg/kg", "result": "12.6 ± 0.8 pmol (mg protein)^−1"}, {"measurement": "cGMP", "setting": "[3]; 100 mg/kg", "result": "2.8 ± 0.3 pmol (mg protein)^−1"}, {"measurement": "cAMP", "setting": "[3]; 200 mg/kg", "result": "12.1 ± 0.5 pmol (mg protein)^−1"}, {"measurement": "cGMP", "setting": "[3]; 200 mg/kg", "result": "2.7 ± 0.2 pmol (mg protein)^−1"}]}
